Experimental data taken from US10975060B2, “High relaxivity gadolinium chelate compounds for use in magnetic resonance imaging” (BAYER PHARMA AKTIENGESELLSCHAFT, priority 2016, dated 2021).
Entries after “also recorded” stand apart in the source; their conditions may differ.

Legend:
[1] = Relaxivity measurements at 3.0 T (whole body MRI scanner, 37 °C) in water and human plasma; type: physicochemical; details: normalized to Gd, average ± standard deviation
Method in brief: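 T1 relaxivity measured on a 3.0 T whole-body MRI scanner at 37 °C in water and fresh citrated human plasma; inversion-recovery sequence, TE 7.46 ms, TIs 50–4500 ms. Three concentrations per compound between 0.05 and 2 mM; ri derived from slope of Ri versus Gd-normalised concentration.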

[2] = Dynamic CT diffusion phantom study (dialysis cassette in fetal bovine serum); type: physicochemical; details: dialysis cassette 20,000 MWCO, 20 mmol Gd/L, CT signal over 30 h
Method in brief: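 Contrast agent at 20 mmol Gd/L in a 20 kDa MWCO dialysis cassette was placed in fetal bovine serum. Diffusion was followed by clinical CT at 100 kV and 104 mA at time points from 0 min to 30 h. Regions of interest were drawn on one central 2.4 mm slice per time point.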

[3] = Chemical stability: autoclaving at 121 °C for 20 min in 10 mM Tris-HCl pH 7.4, HPLC-ICP-MS; type: physicochemical; details: 5 mmol Gd/L in 10 mM Tris-HCl pH 7.4, 121 °C
Protocol: The aliquot removed before and after autoclaving was analyzed by HPLC-ICP-MS to determine the integrity of the compound.
HPLC: Column: Hypercarb 2.5 mm×15 cm. Solvent A: 0.1% formic acid in water. Solvent B: acetonitrile. Gradient from 100% A to 5% A+95% B in 10 min. Flow 1 ml/min. Detection by ICP-MS, tuned to ^158Gd. The chromatograms, displaying the intensity of the detected Gd, were visually compared. No changes in the chromatograms before and after autoclaving were detected. The compound was stable during the autoclaving procedure.

[4] = Water solubility (exploratory, 10 mM Tris-HCl, 20 °C); type: physicochemical; details: water (10 mM Tris-HCl buffer), pH 7.4
Protocol: The exploratory water solubilities of the compounds were determined at room temperature (20° C.) in 0.5 mL buffer solution (10 mM Tris-HCl) in the microcentrifuge tubes (Eppendorf, 2.0 mL safe-lock caps). The solid compounds were added stepwise to the buffer solution. The suspension was mixed using a shaker (Heidolph Reax 2000) and treated 5 min in an ultrasound bath (Bandelin, Sonorex Super RK255H).

[5] = Gd-complex stabilities in human plasma at 37 °C, 15 d (released Gd3+ by HPLC-ICP-MS); type: in vitro ADME
Protocol: Gd-Complex Stabilities in Human Plasma at 37° C., 15 d
Example 1 was separately dissolved in human plasma at 1 mmol Gd/L. As a reference for released Gd^3+ 0.1 mmol/L Gadolinium chloride (GdCl3) was dissolved in human plasma. The plasma samples were incubated for 15 days at 37° C. under 5% CO2 atmosphere to maintain the pH at 7.4. Aliquots were taken at the start and end of the incubation. The amount of Gd^3+ released from the complexes was determined by HPLC-ICP-MS. Column: Chelating Sepharose (HiTrap, 1 mL). Solvent A: 10 mM BisTris-HCl pH 6.0. Solvent B: 15 mM HNO3. Gradient: 3 min at 100% A, from 3 to 10 min at 100% B. Flow 1 mL/min. Detection by ICP-MS, tuned to ^158Gd. The chromatograms, displaying the intensity of the detected Gd, were evaluated by peak area analysis. The size of the peak of Gd^3+, eluting after the change from solvent A to B, was recorded. For Example 1 the increase of this peak and thus the release of Gd^3 after 15 days was below the limit of quantification (<0.1% of the injected total amount of Gadolinium). Example 1 is stable under physiological conditions.

[6] = Relaxivity measurements at 1.4 T (MiniSpec mq60, 60 MHz, 37 °C) in water and human plasma; type: physicochemical; details: 1.41 T, normalized to Gd
Method in brief: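 T1 by inversion recovery and T2 by CPMG, relaxation delay ≥5×T1, at three Gd concentrations between 0.05 and 2 mM in water or fresh citrated human plasma. Relaxivities r1, r2 taken as slopes of relaxation rate versus Gd concentration, verified by ICP-MS.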

[7] = Pharmacokinetic parameters of blood plasma levels after i.v. bolus in male rats (three compartment model); type: in vivo, rats (Han-Wistar)
Protocol: Pharmacokinetic parameters of Example 6 were determined in male rats (Han-Wistar, 235-270 g, n=3). The compound was administered as a sterile aqueous solution (53.8 mmol Gd/L) as a bolus in the tail vein of the animals. The dose was 0.1 mmol Gd/kg. Blood was sampled 1, 3, 5, 10, 15, 30, 60, 90, 120, 240, 360, 480, and 1440 min post injection and the Gd concentration was determined by Inductively Coupled Plasma Mass Spectrometry (ICP-MS Agilent 7500a, Waldbronn, Germany). The blood level was converted to plasma concentrations by division by 0.625 (plasma fraction of rat blood, assuming strictly extracellular distribution). As a control, 3 animals (Han-Wistar, 248-289 g), were treated in the same way with Reference Compound 1 (Gadovist®), a low molecular weight contrast agent.
The fit of the obtained data to a three compartment model (Phoenix-WinNonlin) yielded the pharmacokinetic parameters which are shown in Table 3.

[8] = Contrast-enhanced magnetic resonance angiography (CE-MRA) at 1.5 T, intraindividual comparison; type: in vivo, New Zealand white rabbits; details: rabbits
Protocol: Reference compound 1 (Gadovist®), as an approved representative of the Gadolinium-based MRI contrast agents, was used in both dose protocols (100 μmol Gd/kg bw and 25 μmol Gd/kg bw) and compared to example compound 6 (25 μmol Gd/kg bw).
The contrast-enhanced magnetic resonance angiography study was performed at a clinical 1.5 T Scanner (Magnetom Avanto Fit, Siemens Healthcare, Erlangen, Germany). For optimal signal exploitation, a spine in combination with a body-flex coil was used for the data acquisition. The study was performed on male New Zealand white rabbits (weight 3.6-3.9 kg, n=4, Charles River Kisslegg). The animals received all 3 contrast protocols within one imaging session. The order of the contrast protocols was randomized between the animals.
All animals are initially anesthetized using a body weight-adjusted intramuscular injection of a mixture (1+2) of xylazine hydrochloride (20 mg/mL, Rompun 2%, Bayer Vital GmbH, Leverkusen, Germany) and ketamine hydrochloride (100 mg/mL, Ketavet, Pfizer, Pharmacia GmbH, Berlin, Germany) using 1 mL/kg body weight. The continuous anesthesia of the intubated animals (endotracheal tube, Rueschelit Super Safe Clear, cuff 3.0 mm, Willy Ruesch A G, Kernen, Germany) is achieved by the intravenous injection of 0.9 mg propofol per kilogram per hour (10 mg/mL, Propofol-Lipuro 1%, B. Braun Melsungen A G, Melsungen, Germany). The continuous intravenous injection is performed using a MR infusion system (Continuum MR Infusion System, Medrad Europe B. V., A E Beek, Germany). The tracheal respiration (SV 900C, Maquet, Rastatt, Germany) is performed with 55% oxygen, forty breaths per minute, and a breathing volume of 4 mL per kilogram body weight per minute.
Based on a localizer MRI sequence oriented in coronal, axial, and sagittal directions the anatomic course of the aorta is acquired. A small intravenous test bolus (0.2 mL, Reference compound 1 followed by 1.3 mL saline) was administered to determine the time to peak interval (descending aorta) using a test bolus sequence. The MRA delay time between the start of the contrast injection and the start of image acquisition was calculated by subtracting the time to k-space center from the time to peak interval. For MRA a 3D FLASH sequence (TR=3.3 ms, TE=1.2 ms, flip=25°) was acquired before and after injection of the contrast agent considering the delay time. Both measurements were performed within expiratory breath hold. The time interval for the intraindividual comparison between the different contrast agent applications was twenty to thirty minutes.
Quantitative image evaluation was performed on the subtraction images (post contrast—baseline). […]

[9] = i.v. bolus 0.1 mmol Gd/kg, mean, n=3
[10] = subtraction images, carotid artery, aorta, renal arteries

Q: Which r1 human plasma ([1]; human plasma) does the source give for `CN(CC(=O)NCC(CNC(=O)CN(C)C(=O)CN1CCN(CC(=O)[O-])CCN(CC(=O)[O-])CCN(CC(=O)[O-])CC1)(CNC(=O)CN(C)C(=O)CN1CCN(CC(=O)[O-])CCN(CC(=O)[O-])CCN(CC(=O)[O-])CC1)CNC(=O)CN(C)C(=O)CN1CCN(CC(=O)[O-])CCN(CC(=O)[O-])CCN(CC(=O)[O-])CC1)C(=O)CN1CCN(CC(=O)[O-])CCN(CC(=O)[O-])CCN(CC(=O)[O-])CC1.[Gd+3].[Gd+3].[Gd+3].[Gd+3]` [Example 1, Tetragadolinium [4,10-bis(carboxylatomethyl)-7-{3,13-dimethyl-8,8-bis({[(methyl{[4,7,10-tris(carboxylatomethyl)-1,4,7,10-tetraazacyclododecan-1-yl]acetyl}amino)-acetyl]amino}methyl)-2,5,11,14-tetraoxo-15-[4,7,10-tris(carboxylatomethyl)-1,4,7,10-tetraazacyclododecan-1-yl]-3,6,10,13-tetraazapentadec-1-yl}-1,4,7,10-tetraazacyclo-dodecan-1-yl]acetate] here?
A: The r1 human plasma was 10.3 ± 0.2 L/mmol/s.

Q: What about the r1 water ([1]; water) of the same compound?
A: Its r1 water is 9.1 ± 0.1 L/mmol/s.

Q: What about the “Diffusion half-live (20 kDa)” value [2] of the same compound?
A: Its value is 10.4 h.

Q: What about the “appearance of the solution after autoclaving” value [3] of the same compound?
A: Its value is “clear and colorless”.

Q: What about the “changes in the chromatograms (HPLC-ICP-MS) before and after autoclaving” value [3] of the same compound?
A: Its value is “No changes”.

Q: What about the “stability during the autoclaving procedure” value [3] of the same compound?
A: Its value is “stable”.

Q: What about the Solubility [4] of the same compound?
A: The Solubility was >1000 mg/100 mL.

Q: What about the “release of Gd3+ after 15 days” value ([5]; 1 mmol Gd/L, pH 7.4, below the limit of quantification) of the same compound?
A: Its value is < 0.1 % of the injected total amount of Gadolinium.

Q: And the “stability under physiological conditions” value ([5]; 15 days)?
A: Its value is “stable”.

Q: And the r1 human plasma [6]?
A: Its r1 human plasma is 11.7 L/mmol/s.

Q: What about the r1 water [6] of the same compound?
A: Its r1 water is 10.1 L/mmol/s.

Q: For `CC(C)CN(CC(=O)NCC(CNC(=O)CN(CC(C)C)C(=O)CN1CCN(CC(=O)[O-])CCN(CC(=O)[O-])CCN(CC(=O)[O-])CC1)(CNC(=O)CN(CC(C)C)C(=O)CN1CCN(CC(=O)[O-])CCN(CC(=O)[O-])CCN(CC(=O)[O-])CC1)CNC(=O)CN(CC(C)C)C(=O)CN1CCN(CC(=O)[O-])CCN(CC(=O)[O-])CCN(CC(=O)[O-])CC1)C(=O)CN1CCN(CC(=O)[O-])CCN(CC(=O)[O-])CCN(CC(=O)[O-])CC1.[Gd+3].[Gd+3].[Gd+3].[Gd+3]` [Example 6, Tetragadolinium {4,10-bis(carboxylatomethyl)-7-[3-isobutyl-8,8-bis({[(isobutyl{[4,7,10-tris(carboxylatomethyl)-1,4,7,10-tetraazacyclododecan-1-yl]acetyl}amino)acetyl]-amino}methyl)-15-methyl-2,5,11-trioxo-13-{[4,7,10-tris(carboxylatomethyl)-1,4,7,10-tetraazacyclododecan-1-yl]acetyl}-3,6,10,13-tetraazahexadec-1-yl]-1,4,7,10-tetraaza-cyclododecan-1-yl}acetate], which “Diffusion half-live (20 kDa)” value [2] is on record?
A: Its value is 15.0 h.

Q: And the “pharmacokinetic compared to that of the reference compound 1” value ([7]; 0.1 mmol Gd/kg i.v.)?
A: Its value is “very similar”.

Q: What about the “AUC∞ Area under the curve (to infinity)” value [7, 9] of the same compound?
A: The value was 10801 µmol·min/L.

Q: What about the “MRT Mean residence time” value [7, 9] of the same compound?
A: The value was 40.7 min.

Q: What about the “V1 + V2 Volume, compartments V1 + V2” value [7, 9] of the same compound?
A: The value was 0.14 L/kg.

Q: And the “V2 Volume, compartment V2” value [7, 9]?
A: Its value is 0.12 L/kg.

Q: And the “Vd, ss Volume of distribution at steady state” value [7, 9]?
A: Its value is 0.27 L/kg.

Q: And the “t½ α Half-life, compartment V1” value [7, 9]?
A: Its value is 2.45 min.

Q: What about the “t½ β Half-life, compartment V2” value [7, 9] of the same compound?
A: The value was 22.4 min.

Q: And the “t½ γ Half-life, compartment V3” value [7, 9]?
A: The value was 1041 min.

Q: What about the Solubility [4] of the same compound?
A: The Solubility was >1000 mg/100 mL.

Q: What about the “vascular contrast (MR-angiograms, qualitative) at 25 μmol/kg compared to reference compound 1 at 100 μmol/kg” value ([8]; example compound 6 at 25 μmol Gd/kg bw) of the same compound?
A: The value was “No qualitative difference”.

Q: And the “signal enhancement at vascular regions, 25 μmol/kg compared to reference compound 1 at reduced (identical) dose (25 μmol/kg)” value [8, 10]?
A: Its value is “significantly (p<0.001) higher”.

Q: What about the “signal enhancement at vascular regions, 25 μmol/kg compared to reference compound 1 at standard dose (100 μmol/kg)” value [8, 10] of the same compound?
A: Its value is “No significant difference; also recorded: similar”.

Q: And the r1 human plasma [6]?
A: The r1 human plasma was 14.1 L/mmol/s.

Q: What about the r1 water [6] of the same compound?
A: The r1 water was 11.6 L/mmol/s.
